Each compound was assayed against T1, Mcl-1/Bim interaction, recombinant human Mcl-1 (171-327) (Homo sapiens, UniProt Q07820) (assay: Cell free Mcl-1: Bim Affinity Assay (Mcl-1 HTRF)). Details: TR-FRET, 0.1 nM Mcl-1 (171-327), 0.05 nM biotin-Bim (51-76).
T1 construct: made in house
T1 sequence (Q07820 171-327): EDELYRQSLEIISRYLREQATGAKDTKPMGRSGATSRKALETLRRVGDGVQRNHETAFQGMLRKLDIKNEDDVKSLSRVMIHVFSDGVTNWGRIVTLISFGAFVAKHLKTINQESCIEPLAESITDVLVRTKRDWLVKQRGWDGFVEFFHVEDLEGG
Format: binding
Method in brief: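 Biotin-Bim(51-76) peptide, TR-FRET readout, overnight incubation; IC50 from duplicate competition curves, 4-parameter fit.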
In the case of `C[C@@H]1CC/C=C/[C@H](OCC(=O)N(C)C)[C@@H]2CC[C@H]2CN2C[C@@]3(CCCc4cc(Cl)ccc43)COc3ccc(cc32)C(=O)NS1(=O)=O` [Example 420, 2-(((1S,3′R,6′R,7′S,8′E,12′R)-6-chloro-12′-methyl-13′,13′-dioxido-15′-oxo-3,4-dihydro-2H-spiro[naphthalene-1,22′-[20]oxa[13]thia[1,14]diazatetracyclo[14.7.2.0^3,6.0^19,24]pentacosa [8,16,18,24]tetraen]-7′-yl)oxy)-N,N-dimethylacetamide], the IC50 is reported as 0.349 nM. `CCC1CCC=CC(OC(C)C(=O)N(C)C)C2CCC2CN2CC3(CCCc4cc(Cl)ccc43)COc3ccc(cc32)C(=O)NS1(=O)=O` (mixture of isomers) [Example 985] gave an IC50 of 1.46 nM. Compound `O=C1NS(=O)(=O)C/C=C/CNC(=O)[C@@H]2CC[C@H]2CN2C[C@@]3(CCCc4cc(Cl)ccc43)COc3ccc1cc32` (single isomer, unassigned) [Example 97, (1S,3′R,6′R,10′E)-6-chloro-3,4-dihydro-2H,7′H,15′H-spiro[naphthalene-1,22′-[20]oxa[13]thia[1,8,14]triazatetracyclo[14.7.2.0^3,6.0^19,24]pentacosa[10,16,18,24]tetraen]-7′,15′-dione 13′,13′-dioxide or (1S,3′R,6′R,10′Z)-6-chloro-3,4-dihydro-2H,7′H,15′H-spiro[naphthalene-1,22′-[20]oxa[13]thia[1,8,14]triazatetracyclo[14.7.2.0^3,6.0^19,24]pentacosa[10,16,18,24]tetraen]-7′,15′-dione 13′,13′-dioxide] has an IC50 of 12.6 nM. `C[C@@H]1CC/C=C/[C@H](O)[C@]2(C)CC[C@H]2CN2C[C@@]3(CCCc4cc(Cl)ccc43)COc3ccc(cc32)C(=O)NS1(=O)=O` (single isomer, unassigned) [Example 116] was tested, and the IC50 was 0.856 nM. Work on `C[C@]12CC[C@H]1CN1C[C@@]3(CCCc4cc(Cl)ccc43)COc3ccc(cc31)C(=O)NS(=O)(=O)CCCCC[C@@H]2O` (single isomer, unassigned) [Example 123] yielded an IC50 of 4.3 nM. For `CC[C@@H]1CC/C=C/[C@@H](OC)[C@@H]2CC[C@H]2CN2C[C@@]3(CCCc4cc(Cl)ccc43)COc3ccc(cc32)C(=O)NS1(=O)=O` [Example 1093, (1S,3′R,6′R,7′R,8′E,12′R)-6-chloro-7′-methoxy-12′-ethyl-3,4-dihydro-2H,15′H-spiro [naphthalene-1,22′-[20]oxa[13]thia[1,14]diazatetracyclo[14.7.2.0^3,6.0^19,24]pentacosa [8,16,18,24]tetraen]-15′-one 13′,13′-dioxide], the IC50 was 2.54 nM. `CC[C@@H]1CC[C@@H](O)/C=C/[C@@H]2CC[C@H]2CN2C[C@@]3(CCCc4cc(Cl)ccc43)COc3ccc(cc32)C(=O)NS1(=O)=O` (single isomer, unassigned) [Example 198] showed an IC50 of 3.24 nM. `COCCOC[C@@H]1CC/C=C/[C@H](O)[C@@H]2CC[C@H]2CN2C[C@@]3(CCCc4cc(Cl)ccc43)COc3ccc(cc32)C(=O)NS1(=O)=O` (single isomer, unassigned) [Example 448] was tested, and the IC50 was 0.951 nM. `CC[C@@H]1CC/C=C/[C@H](OCC(=O)N2CCC(F)(F)CC2)[C@@H]2CC[C@H]2CN2C[C@@]3(CCCc4cc(Cl)ccc43)COc3ccc(cc32)C(=O)NS1(=O)=O` [Example 998, (1S,3′R,6′R,7′S,8′E,12′R)-6-chloro-7′-(2-(4,4-difluoro-1-piperidinyl)-2-oxoethoxy)-12′-ethyl-3,4-dihydro-2H,15′H-spiro[naphthalene-1,22′-[20]oxa[13]thia[1,14]diazatetracyclo[14.7.2.0^3,6.0^19,24]pentacosa [8,16,18,24]tetraen]-15′-one 13′,13′-dioxide] was tested, and the IC50 was 2.14 nM. `O=C1NS(=O)(=O)CCCCCS(=O)(=O)C2CCC2CN2C[C@@]3(CCCc4cc(Cl)ccc43)COc3ccc1cc32` (mixture of isomers) [Example 196] gave an IC50 of 22.2 nM. With `C[C@]12CC[C@H]1CN1C[C@@]3(CCCc4cc(Cl)ccc43)COc3ccc(cc31)C(=O)NS(=O)(=O)CCCCC[C@@H]2O` (single isomer, unassigned) [Example 122] the IC50 was 7.17 nM.

Same assay, conditions: cell free Mcl-1:Bim TR-FRET, recombinant human Mcl-1 (171-327)
`O=C1NS(=O)(=O)C/C=C/[C@@H](O)CC[C@@H]2CC[C@H]2CN2C[C@@]3(CCCc4cc(Cl)ccc43)COc3ccc1cc32` (single isomer, unassigned) [Example 501] showed an IC50 of 1.49 nM. Work on `O=C1NS(=O)(=O)CCCCC[C@@H](CO)[C@@H]2CC[C@H]2CN2C[C@@]3(CCCc4cc(Cl)ccc43)COc3ccc1cc32` (single isomer, unassigned) [Example 898, (1S,3′R,6′R,7′R)-6-chloro-7′-(hydroxymethyl)-3,4-dihydro-2H,15′H-spiro[naphthalene-1,22′-[20]oxa[13]thia[1,14]diazatetracyclo[14.7.2.0^3,6.0^19,24]pentacosa [16,18,24]trien]-15′-one 13′,13′-dioxide or (1S,3′R,6′R,7′S)-6-chloro-7′-(hydroxymethyl)-3,4-dihydro-2H,15′H-spiro[naphthalene-1,22′[20]oxa[13]thia[1,14]diazatetracyclo[14.7.2.0^3,6.0^19,24]pentacosa[16,18,24]trien]-15′-one 13′,13′-dioxide] yielded an IC50 of 4.03 nM. `C[C@@H]1C[C@@H]2C[C@@H](O1)[C@@H]1CC[C@H]1CN1C[C@@]3(CCCc4cc(Cl)ccc43)COc3ccc(cc31)C(=O)NS(=O)(=O)CCO2` (single isomer, unassigned) [Example 876] gave an IC50 of 18.3 nM. With `O=C1NS(=O)(=O)CCCCC[C@@H](NC(=O)C2CC2)[C@@H]2CC[C@H]2CN2C[C@@]3(CCCc4cc(Cl)ccc43)COc3ccc1cc32` (single isomer, unassigned) [Example 937] the IC50 was 4.75 nM. With `O=C(CO)N[C@@H]1CCCCCS(=O)(=O)NC(=O)c2ccc3c(c2)N(C[C@@H]2CC[C@H]21)C[C@@]1(CCCc2cc(Cl)ccc21)CO3` (single isomer, unassigned) [Example 939] the IC50 was 6.67 nM. With `O=C1NS(=O)(=O)C[C@@H](O)/C=C/C[C@H](O)[C@@H]2CC[C@H]2CN2C[C@@]3(CCCc4cc(Cl)ccc43)COc3ccc1cc32` (single isomer, unassigned) [Example 597] the IC50 was 1.46 nM. Compound `C=C1[C@@H](O)[C@H](O)CC[C@@H](CC)S(=O)(=O)NC(=O)c2ccc3c(c2)N(C[C@@H]2CC[C@@H]12)C[C@@]1(CCCc2cc(Cl)ccc21)CO3` (single isomer, unassigned) [Example 877] has an IC50 of 26.2 nM. `C[C@H]1CCCC(=O)[C@@H]2CC[C@H]2CN2C[C@@]3(CCCc4cc(Cl)ccc43)COc3ccc(cc32)C(=O)NS1(=O)=O` (single isomer, unassigned) [Example 760] showed an IC50 of 15.8 nM. Work on `O=C1NS(=O)(=O)CCCCC[C@@H]2CC[C@H]2CN2C[C@@]3(CCCc4ccccc43)COc3ccc1cc32` [Example 823, (1S,3′R,6′R)-3,4-dihydro-2H,14′H-spiro[naphthalene-1,21′-[19]oxa[12]thia[1,13]diazatetracyclo[13.7.2.0^3,6.0^18,23]tetracosa [15,17,23]trien]-14′-one 12′,12′-dioxide] yielded an IC50 of 48.2 nM. `CC(=O)N1CC[C@H](O)[C@@H]2CC[C@H]2CN2C[C@@]3(CCCc4cc(Cl)ccc43)COc3ccc(cc32)C(=O)NS(=O)(=O)CC1` (single isomer, unassigned) [Example 778] showed an IC50 of 6.89 nM. Compound `O=C1NS(=O)(=O)CCC/C=C/[C@@H]2CC[C@H]2CN2C[C@@]3(CCCc4cc(Cl)ccc43)COc3ccc1cc32` [Example 829, (1S,3′R,6′S, 7′E)-6-chloro-3,4-dihydro-2H,14′H-spiro[naphthalene-1,21′-[19]oxa[12]thia[1,13]diazatetracyclo[13.7.2.0^3,6.0^18,23]tetracosa [7,15,17,23]tetraen]-14′-one 12′,12′-dioxide] has an IC50 of 9.87 nM. With `O=C1NS(=O)(=O)C/C=C\C[C@@H](O)C[C@@H]2CC[C@H]2CN2C[C@@]3(CCCc4cc(Cl)ccc43)COc3ccc1cc32` (single isomer, unassigned) [Example 914] the IC50 was 1.87 nM. Work on `CC#CC1=CC(O)CCC(C)S(=O)(=O)NC(=O)c2ccc3c(c2)N(CC2CCC12)CC1(CCCc2cc(Cl)ccc21)CO3` (single isomer, unassigned) [Example 606] yielded an IC50 of 13.5 nM. `O=C1NS(=O)(=O)CCCC/C=C/[C@@H]2CC[C@H]2CN2C[C@@]3(CCCc4cc(Cl)ccc43)COc3ccc1cc32` [Example 858, (1S,3′R,6′S, 7′E)-6-chloro-3,4-dihydro-2H,15′H-spiro[naphthalene-1,22′-[20]oxa[13]thia[1,14]diazatetracyclo[14.7.2.0^3,6.0^19,24]pentacosa [7,16,18,24]tetraen]-15′-one 13′,13′-dioxide] showed an IC50 of 27.8 nM. Compound `O=C1NS(=O)(=O)CC/C=C\C[C@@H](O)[C@@H]2CC[C@H]2CN2C[C@@]3(CCCc4cc(Cl)ccc43)COc3ccc1cc32` (single isomer, unassigned) [Example 845] has an IC50 of 4.32 nM. For `O=C1NS(=O)(=O)CC/C=C\CC[C@@H]2CC[C@H]2CN2C[C@@]3(CCCc4cc(Cl)ccc43)COc3ccc1cc32` [Example 499, (1S,3′R,6′R,9′Z)-6-chloro-3,4-dihydro-2H,15′H-spiro[naphthalene-1,22′-[20]oxa[13]thia[1,14]diazatetracyclo[14.7.2.0^3,6.0^19,24]pentacosa [9,16,18,24]tetraen]-15′-one 13′,13′-dioxide], the IC50 was 24 nM. With `C[C@@H]1CCCCCS(=O)(=O)NC(=O)c2ccc3c(c2)N(C[C@@H]2CC[C@H]21)C[C@@]1(CCCc2cc(Cl)ccc21)CO3` (single isomer, unassigned) [Example 907, (1S,3′R,6′S, 7′R)-6-chloro-7′-methyl-3,4-dihydro-2H,15′H-spiro[naphthalene-1,22′-[20]oxa[13]thia[1,14]diazatetracyclo[14.7.2.0^3,6.0^19,24]pentacosa [16,18,24]trien]-15′-one 13′,13′-dioxide or (1S,3′R,6′S, 7′S)-6-chloro-7′-methyl-3,4-dihydro-2H,15′H-spiro[naphthalene-1,22′-[20]oxa[13]thia[1,14]diazatetracyclo[14.7.2.0^3,6.0^19,24]pentacosa [16,18,24]trien]-15′-one 13′,13′-dioxide] the IC50 was 18.9 nM. `CC1COCCC(O)C2CCC2CN2CC3(CCCc4cc(Cl)ccc43)COc3ccc(cc32)C(=O)NS1(=O)=O` (single isomer, unassigned) [Example 861] gave an IC50 of 1.59 nM.

— US12091425B2 (AMGEN INC., priority 2016, dated 2024)
